# US11976068B2 (CHIMERIX, INC., priority 2015, dated 2024)
# “And” between values parts separate entries of the source, which are not always exact repeats. Equal entries are not always repeated.
# Tests used:
# [1] = test system: human colon cancer cell line (HCT116), breast tumor cell line (MDA-MB-231), human primary glioblastoma cell line (U87); test: Cell viability, tumor cells (FIG. 1)
# [2] = biological target: human MDR1 (Homo sapiens, UniProt P08183); details: at 200 micromolar
# [3] = biological target: T1, human BCRP (Homo sapiens, UniProt Q9UNQ0); test: BCRP inhibition, bidirectional permeability of prazosin in MDCKII-BCRP monolayers; details: at 200 micromolar
# T1 sequence (Q9UNQ0 1-655): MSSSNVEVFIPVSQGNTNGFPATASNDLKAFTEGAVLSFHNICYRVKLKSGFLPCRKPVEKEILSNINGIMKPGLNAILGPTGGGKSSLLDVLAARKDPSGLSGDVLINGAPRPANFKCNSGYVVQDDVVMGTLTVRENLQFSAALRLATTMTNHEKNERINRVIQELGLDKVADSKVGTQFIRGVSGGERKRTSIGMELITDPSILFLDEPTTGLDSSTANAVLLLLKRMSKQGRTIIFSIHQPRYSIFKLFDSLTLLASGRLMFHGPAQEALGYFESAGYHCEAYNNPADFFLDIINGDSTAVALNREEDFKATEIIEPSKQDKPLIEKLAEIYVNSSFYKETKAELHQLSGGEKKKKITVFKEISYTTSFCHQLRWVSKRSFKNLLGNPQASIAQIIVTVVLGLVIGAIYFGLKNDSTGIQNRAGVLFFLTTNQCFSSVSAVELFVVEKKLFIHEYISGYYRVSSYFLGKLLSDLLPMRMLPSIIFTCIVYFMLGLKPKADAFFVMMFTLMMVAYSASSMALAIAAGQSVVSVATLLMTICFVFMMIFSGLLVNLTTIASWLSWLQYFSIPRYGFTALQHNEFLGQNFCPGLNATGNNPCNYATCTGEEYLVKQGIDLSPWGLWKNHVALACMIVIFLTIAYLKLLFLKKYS
# [4] = test system: advanced solid tumors; test: Phase I trial, tumor response (RECIST); type: in vivo, human
# Method: Tumor responses were assessed using RECIST every 2 cycles.
# [5] = test system: 1020 genetically annotated cell lines; test: Tumor type in vitro sensitivity, GDSC cell lines, cell viability at 72 hours; type: cell-based; details: tertile of average IC50
# From the text: The estimated IC50 values were averaged across multiple cell lines for each tumor type. Tumor types were categorized into three different groups that represented tertiles of average IC50 values.
# [6] = test system: human foreskin fibroblasts (HFF), human fetal lung fibroblast (MRC-5) cells, human lung fibroblast cell line (WI-38); details: 72 hours
# [7] = Phase I trial, plasma pharmacokinetics of oral ONC201; details: for AUC(0-t): AUClast; for Vd/F: Vz/F
# [8] = N=6 patients receiving 625 mg ONC201 every three weeks
# [9] = human, in vivo, 625 mg, Mean, N=6 patients receiving 625 mg ONC201 every three weeks
# [10] = human, in vivo, 625 mg, Median, N=6 patients receiving 625 mg ONC201 every three weeks
# [11] = human, in vivo, 625 mg, Geo. Mean, N=6 patients receiving 625 mg ONC201 every three weeks
# Chain of human MDR1 (P08183 whole entry): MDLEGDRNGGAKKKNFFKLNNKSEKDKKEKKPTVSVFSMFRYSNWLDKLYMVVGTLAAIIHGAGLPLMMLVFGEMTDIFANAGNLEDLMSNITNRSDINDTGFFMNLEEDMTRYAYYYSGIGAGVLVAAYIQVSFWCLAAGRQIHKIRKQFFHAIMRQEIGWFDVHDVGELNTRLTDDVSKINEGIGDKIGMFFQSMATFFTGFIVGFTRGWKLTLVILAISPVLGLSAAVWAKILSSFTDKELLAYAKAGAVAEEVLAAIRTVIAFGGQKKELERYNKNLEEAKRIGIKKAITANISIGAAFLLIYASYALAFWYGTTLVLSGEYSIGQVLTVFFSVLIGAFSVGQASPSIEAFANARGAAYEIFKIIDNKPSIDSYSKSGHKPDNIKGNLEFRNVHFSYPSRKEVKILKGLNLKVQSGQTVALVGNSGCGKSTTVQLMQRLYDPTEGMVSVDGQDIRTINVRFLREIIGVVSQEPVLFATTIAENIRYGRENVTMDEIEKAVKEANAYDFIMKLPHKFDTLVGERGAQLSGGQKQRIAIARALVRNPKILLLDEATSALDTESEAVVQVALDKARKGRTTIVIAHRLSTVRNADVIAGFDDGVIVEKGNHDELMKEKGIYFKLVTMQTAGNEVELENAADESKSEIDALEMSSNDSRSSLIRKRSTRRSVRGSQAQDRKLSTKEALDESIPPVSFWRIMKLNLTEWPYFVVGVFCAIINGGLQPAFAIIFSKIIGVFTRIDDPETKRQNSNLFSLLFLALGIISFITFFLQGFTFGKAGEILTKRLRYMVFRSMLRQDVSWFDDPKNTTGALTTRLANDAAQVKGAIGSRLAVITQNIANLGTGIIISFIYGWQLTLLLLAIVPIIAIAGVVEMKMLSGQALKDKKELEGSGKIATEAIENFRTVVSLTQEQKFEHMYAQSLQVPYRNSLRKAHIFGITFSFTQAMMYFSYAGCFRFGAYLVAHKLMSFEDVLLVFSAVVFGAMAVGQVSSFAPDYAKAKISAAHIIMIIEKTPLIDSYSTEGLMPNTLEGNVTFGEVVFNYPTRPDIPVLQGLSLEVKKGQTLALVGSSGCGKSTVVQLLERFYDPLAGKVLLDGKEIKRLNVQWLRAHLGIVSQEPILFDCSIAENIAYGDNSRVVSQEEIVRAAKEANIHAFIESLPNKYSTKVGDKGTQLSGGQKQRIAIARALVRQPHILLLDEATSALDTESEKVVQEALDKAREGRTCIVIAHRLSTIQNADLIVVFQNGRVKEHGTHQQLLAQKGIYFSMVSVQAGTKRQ
smiles,measurement,setting,value
"Cc1ccccc1CN1C(=O)C2=C(CCN(Cc3ccccc3)C2)N2CCN=C12 [ONC201, 7-benzyl-4-(2-methylbenzyl)-2,4,6,7,8,9-hexahydroimidazo [1,2-a]pyrido[3,4-e]pyrimidin-5(1H)-one]",viability at 5000 µg/mL,"[1]; Homo sapiens, 72 h, read-out: viability of tumor cells",< 25%
same,viability of tumor cells,"[1]; about 1-5 mg/mL compound (1), 72 hours",≤ 50%
same,inhibitor of MDR1,[2],inhibitor
same,inhibitor of BCRP,[3],inhibitor
same,Time on Study,"[4]; Pat # 1, NSCLC, 125 mg, 4 doses",12 weeks
same,Time on Study,"[4]; Pat # 2, Appendiceal cancer, 250 mg, 4 doses",12 weeks
same,Time on Study,"[4]; Pat # 3, Uterine cancer, 375 mg, 2 doses",6 weeks
same,Time on Study,"[4]; Pat # 4, Renal cancer, 500 mg, 2 doses",6 weeks
same,Time on Study,"[4]; Pat # 5, Breast cancer, 625 mg, 2 doses",6 weeks
same,Time on Study,"[4]; Pat # 6, Prostate adenocarcinoma, 625 mg, 9 doses",27 weeks
same,Time on Study,"[4]; Pat # 7, Small cell lung cancer, 625 mg, 2 doses",6 weeks
same,Time on Study,"[4]; Pat # 8, Colon adenocarcinoma, 625 mg, 4 doses",12 weeks
same,Time on Study,"[4]; Pat # 9, Spindle cell sarcoma, 625 mg, 2 doses",6 weeks
same,Time on Study,"[4]; Pat # 10, Ovarian, 625 mg, 1 dose",3 weeks
same,decrease of multiple nodes,"[4]; Patient #3, advanced clear cell endometrial cancer, mixed response with new nodes",> 30%
same,symptom relief,"[4]; Patient #4, renal cancer and bone metastasis with debilitating pain in the clavicle",relief from their clavicular pain
same,patients with stable disease,"[4]; dose escalation phase, 10 patients",Eight of 10
same,Tumor Type In Vitro Sensitivity,[5]; tumor type Breast cancer,Low
same,Tumor Type In Vitro Sensitivity,[5]; tumor type Colon adenocarcinoma,High
same,Tumor Type In Vitro Sensitivity,[5]; tumor type NSCLC,Med
same,Tumor Type In Vitro Sensitivity,[5]; tumor type Ovarian,Med
same,Tumor Type In Vitro Sensitivity,[5]; tumor type Prostate adenocarcinoma,High
same,Tumor Type In Vitro Sensitivity,[5]; tumor type Renal cancer,Med
same,Tumor Type In Vitro Sensitivity,[5]; tumor type Small cell lung cancer,High
same,Tumor Type In Vitro Sensitivity,[5]; tumor type Spindle cell sarcoma,Low
same,Tumor Type In Vitro Sensitivity,[5]; tumor type Uterine cancer,Med
same,cell viability of normal cells,[6]; about 1-5 mg/mL compound (1),at least 75%
same,viability of normal cells,[6]; beyond about 5 mg/mL compound (1),about 75%
same,"AUC, Min",[7]; [8],13868 h · ng/m
same,"CL/F, Geo. Mean",[7]; [8],25.41 L/h
same,"CL/F, Max",[7]; [8],45.07 L/h
same,"CL/F, Mean",[7]; [8],27.19 L/h
same,"CL/F, Median",[7]; [8],24.83 L/h
same,"CL/F, Min",[7]; [8],14.03 L/h
same,"Cmax, Max",[7]; [8],7470 ng/mL
same,"Cmax, Min",[7]; [8],1530 ng/mL
same,"Tlag, Max",[7]; [8],0.30 h
same,"Tlag, Mean",[7]; [8],0.05 h
same,"Tlag, Median",[7]; [8],0.00 h
same,"Tlag, Min",[7]; [8],0.00 h
same,"Tmax, Max",[7]; [8],3.95 h
same,"Tmax, Min",[7]; [8],0.37 h
same,"t1/2, Max",[7]; [8],12.55 h
same,"t1/2, Min",[7]; [8],7.71 h
same,"λZ, Geo. Mean",[7]; [8],0.073 h⁻¹
same,"λZ, Max",[7]; [8],0.090 h⁻¹
same,"λZ, Mean",[7]; [8],0.074 h⁻¹
same,"λZ, Median",[7]; [8],0.072 h⁻¹
same,"λZ, Min",[7]; [8],0.055 h⁻¹
same,concentration at 24 h,"[7]; human, in vivo",0.9 µM
same,Vd,"[7]; human, in vivo, 625 mg",381 L
same,AUC,"[7]; human, in vivo, 625 mg, AUC, Geo. Mean, N=6 patients receiving 625 mg ONC201 every three weeks",24600 ng·h/mL
same,AUC,"[7]; human, in vivo, 625 mg, AUC, Mean, N=6 patients receiving 625 mg ONC201 every three weeks",26300 ng·h/mL
same,AUC,"[7]; human, in vivo, 625 mg, AUC, Median, N=6 patients receiving 625 mg ONC201 every three weeks",25600 ng·h/mL
same,AUC(0-t),[7]; [9],25500 ng·h/mL
same,AUC(0-t),[7]; [10],24300 ng·h/mL
same,Cmax,"[7]; human, in vivo, 625 mg, Cmax, Geo. Mean, N=6 patients receiving 625 mg ONC201 every three weeks",2890 ng/mL
same,Cmax,"[7]; human, in vivo, 625 mg, Cmax, Mean, N=6 patients receiving 625 mg ONC201 every three weeks",3310 ng/mL
same,Cmax,"[7]; human, in vivo, 625 mg, Cmax, Median, N=6 patients receiving 625 mg ONC201 every three weeks",2720 ng/mL
same,AUC,"[7]; human, in vivo, 625 mg, Mean AUC, top dose cohort (625 mg)",26300 ng·h/mL
same,Tmax,[7]; [11],1.34 h
same,Tmax,[7]; [9],1.79 h
same,Tmax,[7]; [10],1.91 h
same,Vd/F,[7]; [11],348 L
same,Vd/F,[7]; [9],381 L
same,Vd/F,[7]; [10],404 L
same,Cmax,"[7]; human, in vivo, 625 mg, mean Cmax, top dose cohort (625 mg), first dose",3310 ng/mL
same,half-life,"[7]; human, in vivo, 625 mg, mean t1/2, top dose cohort (625 mg)",9.62 h
same,half-life,"[7]; human, in vivo, 625 mg, t1/2, Geo. Mean, N=6 patients receiving 625 mg ONC201 every three weeks",9.49 h
same,half-life,"[7]; human, in vivo, 625 mg, t1/2, Mean, N=6 patients receiving 625 mg ONC201 every three weeks",9.62 h
same,half-life,"[7]; human, in vivo, 625 mg, t1/2, Median, N=6 patients receiving 625 mg ONC201 every three weeks",9.6 h
same,Cmax,"[7]; human, in vivo, Cmax, plasma, as quoted for the CYP margin",9 µM
same,AUC,"[7]; human, in vivo, po, 625 mg, AUC, oral ONC201, PK analysis",25000 ng·h/mL
same,Cmax,"[7]; human, in vivo, po, 625 mg, Cmax, 625 mg (RP2D) orally every 3 weeks",1500 ng/mL to 7500 ng/mL and 3.9 µM to 19.4 µM
same,half-life,"[7]; human, in vivo, po, 625 mg, half-life, oral ONC201, PK analysis",9.6 h
same,"dose at which plasma concentrations / systemic exposure (AUC, Cmax) saturated","[7]; oral, dose escalation 125-625 mg",375 mg
